{"source": "patent US7173004B2", "about": "“Macrocyclic isoquinoline peptide inhibitors of hepatitis C virus” (Bristol-Myers Squibb Company, priority 2003, dated 2007)", "key": {"HCV replicon [1]": {"test_system": "HCV replicon", "test": "Two-drug combination studies in HCV replicon system, combination index (Chou)", "assay_type": "cell-based", "settings": "for EC50: monotherapy, NS3 protease inhibitor = compound 28, read-out: NS3 protease inhibitor EC50", "description": "Since clinical drug resistance often develops in viral infections following single-agent therapies, there is a need to assess the additive, antagonistic, or synergistic properties of combination therapies. We used the HCV replicon system, as described above, to assess the potential use of our NS3 protease macrocyclic inhibitor in combination therapies with Intron A and inhibitors targeting other HCV proteins. Three HCV antivirals, Intron A (recombinant Interferon alfa-2b) an HCV NS5A inhibitor having the following structure:\nIn addition, compound 28 was also tested in 3-drug combinations with the NS5A and NS5B inhibitors.\n(§1) For the experiments shown in Tables 8 and 9, inhibitors were tested at eleven concentrations each. 200× stock solutions of each inhibitor concentration were prepared by 2- or 3-fold dilution in DMSO prior to addition to cells/media. The drugs were tested as monotherapies and in combination with the NS3 protease inhibitor at various concentration ratios. Cells were exposed to compounds for 4 days and the amount of HCV inhibition was then determined using the FRET assay. The potential cytotoxicities of these combined agents were also analyzed in parallel by Alamar Blue staining. […] The degree of antagonism, additivity, or synergy was determined over a range of drug concentrations, and combination response curves were fit to assess the antiviral effects of the drug treatment combinations. The concentration ratios were analyzed using the method of Chou (Chou, Ting-Chao, and Rideout (Editors), (1991) Synergism and Antagonism in Chemotherapy, P. 61–101, Academic Press, New York). Tables 8 and 9 report the estimated EC50 values for the compounds tested, as well as the combination indices (CI). All estimates were computed using SAS Proc NLIN, and a two-parameter logistic. All combination indices were tested for departure from additivity using isobologram methods. Asymptotic confidence intervals were also calculated for each of the combination indices. These intervals are used to test for departure from additivity by comparing the bounds to one—a lower bound of the interval greater than 1 indicates antagonism, an upper bound of less than 1 indicates synergism, and a value of 1 contained in the interval indicates additivity."}, "HCV replicon [2]": {"test_system": "HCV replicon", "test": "Three-drug combination studies in HCV replicon system, combination index", "assay_type": "cell-based", "experimental": "[…] an NS5B replicase inhibitor (compound 2006; WO 03/010141), were tested in 2-drug combinations with the macrocyclic HCV NS3 protease inhibitor compound 28. In addition, compound 28 was also tested in 3-drug combinations with the NS5A and NS5B inhibitors.\nas §1\nCompound 28 was also tested in 3-drug combination experiments with the NS5A inhibitor and the NS5B inhibitor (Table 12). The starting concentrations for the mono-therapies consisted of a 0.667 μM solution of the NS5A inhibitor, a 0.3 μM solution of compound 28, and a 2.5 μM solution of the NS5B inhibitor. The starting concentration for the triple combination contained a mixture of ⅓ of each of the above concentrations. Dose response curves for all three mono-therapies and the triple combination therapy were obtained using 3-fold dilutions, and data analysis was carried out as described above for combination index experiments."}, "[3]": {"settings": "75, 90 and 95% effective doses, two experiments"}}, "note": "Entries after “also recorded” stand apart in the source; their conditions may differ.", "data": [{"compound": "COc1ccc2c(OC3CC4C(=O)NC5(C(=O)NS(=O)(=O)C6CC6)CC5C=CCOCCCC(NC(=O)OC(C)(C)C)C(=O)N4C3)nccc2c1", "note": "(stereo not shown) [Compound 28, [4-Cyclopropanesulfonylaminocarbonyl-18-(6-methoxy-isoquinolin-1-yloxy)-2,15-dioxo-10-oxa-3,16-diaza-tricyclo[14.3.0.0^4,6]nonadec-7-en-14-yl]-carbamic acid tert-butyl ester]", "values": [{"measurement": "combination effect with Intron A (Interferon alfa-2b)", "setting": "HCV replicon [1]; [3]", "result": "either synergistic or additivity effects; also recorded: no drug antagonism"}, {"measurement": "combination effect with the HCV NS5A inhibitor", "setting": "HCV replicon [1]; [3]", "result": "Synergy or additivity; also recorded: no drug antagonism"}, {"measurement": "EC50", "setting": "HCV replicon [1]; Hepatitis C virus, Table 9 (combinations with an NS5A inhibitor)", "result": 9, "unit": "nM"}, {"measurement": "EC50", "setting": "HCV replicon [1]; Table 9 (combinations with an NS5A inhibitor)", "result": 11, "unit": "nM"}, {"measurement": "EC50", "setting": "HCV replicon [1]; Table 8 (combinations with Interferon alfa-2b)", "result": 10, "unit": "nM"}, {"measurement": "combination effect, 3-drug combination with the NS5A inhibitor and the NS5B inhibitor", "setting": "HCV replicon [2]; 75, 90 and 95% effective doses", "result": "Synergistic effects; also recorded: No drug antagonism"}, {"measurement": "EC50", "setting": "HCV replicon [2]; Hepatitis C virus, mono-therapy in the three-drug combination experiment, HCV replicon, NS3 Pr inhibitor is compound 28, read-out: NS3 Pr inhibitor EC50", "result": 8, "unit": "nM"}]}]}
